Where two headings read alike, the source gives them in different places. Ends that are not written are not given here.
Test: 14-day repeat IV dose toxicity study with toxicokinetic evaluation on Day 1 and 14 in dogs
Format: in vivo, beagle dogs
Conditions: dog; for C0 / AUC(0-inf) / clearance / half-life / Vd: in vivo
Description: Peptide 1 in blood samples collected from animals used in the studies (rat and dog) has been measured by an LC-MS/MS method. Analysis of samples collected in the pharmacokinetic study in rats was performed prior to validation of the method. Prior to analysis of samples from the GLP toxicology studies, the method was validated according to GLP to ensure that it is selective, accurate, reproducible, and able to produce reliable results. The method was validated over the range from 0.075 to 25 μg/mL Peptide 1.
In the 14-day intravenous toxicity study in beagle dogs (see study description below), samples were collected from 3 male and 3 female animals per group dosed at 0 (Control), 1, 3 or 10 mg/kg/day at 2, 5, 10, 20 and 40 minutes after dosing on Days 1 and 14. Samples were analysed for levels of Peptide 1.

AMVSEFLKQAWFIENEEQEYVQTLKSSKGGPGSAVSPYPTFNPSSDV-NH2 [Peptide 1]
exposure (C(0) and AUCinf) versus dose (from 1 mg/kg to 10 mg/kg): increase proportional to dose level | C0 (1 mg/kg, Group 2 (1 mg/kg), range over sexes and Days 1 and 14): 4580 to 8580 ng/mL | AUC(0-inf) (1 mg/kg, Group 2 (1 mg/kg), range over sexes and Days 1 and 14, read-out: AUCinf): 450 to 620 ng·h/mL | C0 (3 mg/kg, Group 3 (3 mg/kg), range over sexes and Days 1 and 14): 12500 to 20000 ng/mL | AUC(0-inf) (3 mg/kg, Group 3 (3 mg/kg), range over sexes and Days 1 and 14, read-out: AUCinf): 1420 to 1970 ng·h/mL | C0 (10 mg/kg, Group 4 (10 mg/kg), range over sexes and Days 1 and 14): 26400 to 58300 ng/mL | AUC(0-inf) (10 mg/kg, Group 4 (10 mg/kg), range over sexes and Days 1 and 14, read-out: AUCinf): 3930 to 4680 ng·h/mL | clearance (all groups, read-out: clearance): 27.4 to 42.7 mL/min/kg | half-life (all groups, read-out: elimination half-life): 4.66 to 6.59 min | C0 (iv, 1 mg/kg/day, IV 1.0 mg/kg/day, female, Day 1): 6990 ng/mL | AUC(0-inf) (iv, 1 mg/kg/day, IV 1.0 mg/kg/day, female, Day 1, read-out: AUC0-∞ (converted)): 537 ng·h/mL | clearance (iv, 1 mg/kg/day, IV 1.0 mg/kg/day, female, Day 1, read-out: Cl): 33.1 mL/min/kg | half-life (iv, 1 mg/kg/day, IV 1.0 mg/kg/day, female, Day 1, read-out: T1/2): 4.83 min | Vd (iv, 1 mg/kg/day, IV 1.0 mg/kg/day, female, Day 1, read-out: Vz): 0.232 L/kg | C0 (iv, 1 mg/kg/day, IV 1.0 mg/kg/day, female, Day 14): 8580 ng/mL | AUC(0-inf) (iv, 1 mg/kg/day, IV 1.0 mg/kg/day, female, Day 14, read-out: AUC0-∞ (converted)): 620 ng·h/mL | clearance (iv, 1 mg/kg/day, IV 1.0 mg/kg/day, female, Day 14, read-out: Cl): 27.4 mL/min/kg | half-life (iv, 1 mg/kg/day, IV 1.0 mg/kg/day, female, Day 14, read-out: T1/2): 4.66 min | Vd (iv, 1 mg/kg/day, IV 1.0 mg/kg/day, female, Day 14, read-out: Vz): 0.183 L/kg | C0 (iv, 1 mg/kg/day, IV 1.0 mg/kg/day, male, Day 1): 4580 ng/mL | AUC(0-inf) (iv, 1 mg/kg/day, IV 1.0 mg/kg/day, male, Day 1, read-out: AUC0-∞ (converted)): 450 ng·h/mL | clearance (iv, 1 mg/kg/day, IV 1.0 mg/kg/day, male, Day 1, read-out: Cl): 37.1 mL/min/kg | half-life (iv, 1 mg/kg/day, IV 1.0 mg/kg/day, male, Day 1, read-out: T1/2): 4.68 min | Vd (iv, 1 mg/kg/day, IV 1.0 mg/kg/day, male, Day 1, read-out: Vz): 0.251 L/kg | C0 (iv, 1 mg/kg/day, IV 1.0 mg/kg/day, male, Day 14): 6590 ng/mL | AUC(0-inf) (iv, 1 mg/kg/day, IV 1.0 mg/kg/day, male, Day 14, read-out: AUC0-∞ (converted)): 550 ng·h/mL | clearance (iv, 1 mg/kg/day, IV 1.0 mg/kg/day, male, Day 14, read-out: Cl): 31 mL/min/kg | half-life (iv, 1 mg/kg/day, IV 1.0 mg/kg/day, male, Day 14, read-out: T1/2): 6.59 min | Vd (iv, 1 mg/kg/day, IV 1.0 mg/kg/day, male, Day 14, read-out: Vz): 0.297 L/kg | C0 (iv, 3 mg/kg/day, IV 3.0 mg/kg/day, female, Day 1): 16100 ng/mL | AUC(0-inf) (iv, 3 mg/kg/day, IV 3.0 mg/kg/day, female, Day 1, read-out: AUC0-∞ (converted)): 1700 ng·h/mL | clearance (iv, 3 mg/kg/day, IV 3.0 mg/kg/day, female, Day 1, read-out: Cl): 30.1 mL/min/kg | half-life (iv, 3 mg/kg/day, IV 3.0 mg/kg/day, female, Day 1, read-out: T1/2): 5.7 min | Vd (iv, 3 mg/kg/day, IV 3.0 mg/kg/day, female, Day 1, read-out: Vz): 0.248 L/kg | C0 (iv, 3 mg/kg/day, IV 3.0 mg/kg/day, female, Day 14): 20000 ng/mL | AUC(0-inf) (iv, 3 mg/kg/day, IV 3.0 mg/kg/day, female, Day 14, read-out: AUC0-∞ (converted)): 1970 ng·h/mL | clearance (iv, 3 mg/kg/day, IV 3.0 mg/kg/day, female, Day 14, read-out: Cl): 25.9 mL/min/kg | half-life (iv, 3 mg/kg/day, IV 3.0 mg/kg/day, female, Day 14, read-out: T1/2): 6.13 min | Vd (iv, 3 mg/kg/day, IV 3.0 mg/kg/day, female, Day 14, read-out: Vz): 0.232 L/kg | C0 (iv, 3 mg/kg/day, IV 3.0 mg/kg/day, male, Day 1): 12500 ng/mL | AUC(0-inf) (iv, 3 mg/kg/day, IV 3.0 mg/kg/day, male, Day 1, read-out: AUC0-∞ (converted)): 1420 ng·h/mL | clearance (iv, 3 mg/kg/day, IV 3.0 mg/kg/day, male, Day 1, read-out: Cl): 35.9 mL/min/kg | half-life (iv, 3 mg/kg/day, IV 3.0 mg/kg/day, male, Day 1, read-out: T1/2): 6.01 min | Vd (iv, 3 mg/kg/day, IV 3.0 mg/kg/day, male, Day 1, read-out: Vz): 0.318 L/kg | C0 (iv, 3 mg/kg/day, IV 3.0 mg/kg/day, male, Day 14): 19900 ng/mL | AUC(0-inf) (iv, 3 mg/kg/day, IV 3.0 mg/kg/day, male, Day 14, read-out: AUC0-∞ (converted)): 1850 ng·h/mL | clearance (iv, 3 mg/kg/day, IV 3.0 mg/kg/day, male, Day 14, read-out: Cl): 27.4 mL/min/kg | half-life (iv, 3 mg/kg/day, IV 3.0 mg/kg/day, male, Day 14, read-out: T1/2): 6.05 min | Vd (iv, 3 mg/kg/day, IV 3.0 mg/kg/day, male, Day 14, read-out: Vz): 0.238 L/kg | C0 (iv, 10 mg/kg/day, IV 10 mg/kg/day, female, Day 1): 53400 ng/mL | AUC(0-inf) (iv, 10 mg/kg/day, IV 10 mg/kg/day, female, Day 1, read-out: AUC0-∞ (converted)): 4550 ng·h/mL | clearance (iv, 10 mg/kg/day, IV 10 mg/kg/day, female, Day 1, read-out: Cl): 37.1 mL/min/kg | half-life (iv, 10 mg/kg/day, IV 10 mg/kg/day, female, Day 1, read-out: T1/2): 5.41 min | Vd (iv, 10 mg/kg/day, IV 10 mg/kg/day, female, Day 1, read-out: Vz): 0.288 L/kg | C0 (iv, 10 mg/kg/day, IV 10 mg/kg/day, female, Day 14): 58300 ng/mL | AUC(0-inf) (iv, 10 mg/kg/day, IV 10 mg/kg/day, female, Day 14, read-out: AUC0-∞ (converted)): 4570 ng·h/mL | clearance (iv, 10 mg/kg/day, IV 10 mg/kg/day, female, Day 14, read-out: Cl): 36.7 mL/min/kg | half-life (iv, 10 mg/kg/day, IV 10 mg/kg/day, female, Day 14, read-out: T1/2): 5.9 min | Vd (iv, 10 mg/kg/day, IV 10 mg/kg/day, female, Day 14, read-out: Vz): 0.312 L/kg | C0 (iv, 10 mg/kg/day, IV 10 mg/kg/day, male, Day 1): 26400 ng/mL | AUC(0-inf) (iv, 10 mg/kg/day, IV 10 mg/kg/day, male, Day 1, read-out: AUC0-∞ (converted)): 3930 ng·h/mL | clearance (iv, 10 mg/kg/day, IV 10 mg/kg/day, male, Day 1, read-out: Cl): 42.7 mL/min/kg | half-life (iv, 10 mg/kg/day, IV 10 mg/kg/day, male, Day 1, read-out: T1/2): 5.09 min | Vd (iv, 10 mg/kg/day, IV 10 mg/kg/day, male, Day 1, read-out: Vz): 0.318 L/kg | C0 (iv, 10 mg/kg/day, IV 10 mg/kg/day, male, Day 14): 51400 ng/mL | AUC(0-inf) (iv, 10 mg/kg/day, IV 10 mg/kg/day, male, Day 14, read-out: AUC0-∞ (converted)): 4680 ng·h/mL | clearance (iv, 10 mg/kg/day, IV 10 mg/kg/day, male, Day 14, read-out: Cl): 36.6 mL/min/kg | half-life (iv, 10 mg/kg/day, IV 10 mg/kg/day, male, Day 14, read-out: T1/2): 6 min | Vd (iv, 10 mg/kg/day, IV 10 mg/kg/day, male, Day 14, read-out: Vz): 0.316 L/kg

From patent US20250345392A1, “ANNEXIN A1 LIQUID PHARMACEUTICAL COMPOSITION” (ResoTher Pharma A/S, priority 2022, published 2025)
